Results published in patent US20220220206A1, “TREATING CHRONIC LIVER DISEASE” (Mayo Foundation for Medical Education and Research, priority 2019, published 2022).

Columns and labels:
[1] = test system: active ITGβ1 in Huh7 cells; assay: LPC-induced ITGβ1 activation in Huh7 cells (immunoprecipitation/immunoblot, immunofluorescence); type: cell-based, human; conditions: 10 μM SB203580
Experimental: Whole cell lysates (WCL) were obtained using immuno-precipitate (IP) buffer (50 mM Tris-HCl, pH 7.4; 1% Nonidet P-40; 150 mM NaCl) with protease inhibitor and phosphatase inhibitor followed by centrifugation at 15,000 g for 15 minutes at 4° C. Protein concentrations of the lysates were measured by the Bradford assay method (Sigma-Aldrich). In pull-down experiments, aliquots containing 1 mg of protein were incubated with either anti-ITGβ1 (MAB13), anti-ITGβ1 (9EG7) antibody or isotype IgG control antibody for 1 hour at 4° C., then incubated overnight with protein G sepharose beads (GE Healthcare) under rotary agitation. Pelleted proteins were washed with IP buffer for seven times, solubilized in SDS sample buffer, boiled for 10 minutes, and then subjected to SDS-PAGE and immunoblot analysis.
Huh7 cells were seeded on fibronectin-coated coverslips and fixed with 4% paraformaldehyde following LPC treatment. After permeabilization using 0.2% TritonX-100, the cells were blocked using blocking buffer (5% bovine serum albumin, 0.1% glycine in PBS) for one hour at room temperature, and then incubated with the primary antibody of interest overnight at 4° C. […] Pearson's correlation coefficient of co-localization was employed to quantify the degree of colocalization between fluorophores. Ten to 20 random fields in each group were selected for quantification and statistical analysis.

[2] = test system: VCAM-1 expression in TSEC; assay: Palmitate-induced VCAM-1 expression in TSEC; type: cell-based, mouse; conditions: 500 μM PA, 16 hours
Experimental: Transformed mouse liver sinusoidal endothelial cells (TSEC) were obtained. Primary human liver sinusoidal endothelial cells (LSEC) were purchased from ScienCell Research Laboratories (San Diego, Calif.). To yield primary mouse LSECs, cell suspensions obtained with liver collagenase perfusion were centrifuged at 50 g for 2 minutes to remove hepatocytes. The supernatant which includes non-parenchymal cells was subjected to LSEC isolation using CD146 MicroBeads (Miltenyi Biotec, Bergisch Gladbach, Germany) following the manufacture's instruction. […]
Cells were lysed using RIPA buffer (50 mM Tris-HCl, pH 7.4; 1% Nonidet P-40; 0.25% sodium deoxycholate; 150 mM NaCl; 1 mM EDTA with protease inhibitors) followed by centrifugation at 15,000 g for 15 minutes at 4° C. Protein concentrations of the lysates were measured by the Bradford assay method (Sigma-Aldrich). […] Proteins were detected using enhanced chemiluminescence reagents (GE Healthcare, Chicago, Ill.). β-actin and GAPDH protein levels were used as loading controls.
Total RNA was isolated with the RNeasy Mini Kit (Qiagen, Valencia, Calif.) and was reverse transcribed with moloney murine leukemia virus reverse transcriptase and oligo-dT random primers (both from Invitrogen, CA, USA). Quantification of gene expression was performed by real-time PCR using SYBR green fluorescence on a LightCycler 480 instrument (Roche Applied, IN, USA). […]

[3] = test system: FFC diet-fed C57BL/6J mice (diet-induced NASH); assay: FFC diet-induced NASH mouse model, VCAM-1 blockade (antibody or AGI-1067); type: in vivo; conditions: AGI-1067 25 mg/kg i.p. daily for 15 days, vs vehicle
Excerpt: C57BL/6J male mice were purchased from Jackson Laboratory (Bar Harbor, Me.). Mice were housed and bred in a temperature-controlled 12:12-hour light-dark cycle facility with free access to diet. The mice were fed either a chow diet (5053 PicoLab Rodent Diet 20, LabDiet, St Louis, Mo.) or a diet rich in fat, fructose, and cholesterol (FFC) at 8-weeks old for 24 weeks. FFC diet consists of 40% energy as fat (12% saturated fatty acid, 0.2% cholesterol) (AIN-76A Western Diet, TestDiet, St Louis, Mo.), with fructose (23.1 g/L) and glucose (18.9 g/L) in the drinking water. The FFC diet induces steatohepatitis with pronounced hepatocellular ballooning, lipoapoptosis, and progressive fibrosis with a high fidelity to the human NASH histology and metabolic profile. At 20 weeks on the diet, the mice were randomized to receive either anti-VCAM-1 neutralizing antibody (M/K-2.7), (Genetex, GTX14360) or IgG isotype antibody (BE0088, InVivoMAb). Mice were injected with 10 mg/kg body weight of either of the antibodies intraperitoneally, twice per week for 4 weeks. Another cohort of Chow or FFC diet-fed mice was randomized to receive either vehicle or VCAM-1 inhibitor succinobucol (AGI-1067). Mice were injected with either vehicle or 25 mg/kg body weight of AGI-1067 intraperitoneally, daily for 15 days. Total caloric intake at the 3rd week of VCAM-1 antibody treatment and the first week of AGI-1067 treatment was calculated based on the weight of food and drinking water consumption. At the third week of anti-VCAM-1 neutralizing antibody treatment, metabolic parameters, including oxygen consumption, carbon dioxide production, and locomotor activity, were measured using a Comprehensive Lab Animal Monitoring System (CLAMS, Columbus Instruments, OH). Anti-VCAM-1 antibody from Bio Xcell (West Lebanon, N.H.), (BE0027) was used for the CLAMS study. Blood glucose levels and plasma insulin levels were measured using Assure 4 (Arkray, Edina, Minn.) and Ultra-Sensitive Mouse Insulin enzyme-linked immunosorbent assay (ELISA) kit (Crystal Chem Inc., Downers Grove, Ill.), respectively. Homeostasis model assessment of insulin resistance (HOMA-IR) was calculated by using the following formula: HOMA-IR=26×fasting insulin level (ng/mL)×fasting glucose level (mg/dL)/405. Mice were sacrificed under general anesthesia induced by a ketamine/xylazine cocktail (83 mg/kg ketamine, 16 mg/kg xylazine, intraperitoneal injection). All interventions were made during the light cycle. Blood and liver samples were collected for further study.
Liver triglyceride levels were measured in mouse liver homogenates. Fifty milligrams of liver tissue was homogenized in a 5% NP-40 solution. EnzyChrom Triglyceride Kit (BioAssay System, CA) was used for the assay according to the manufacturer's instruction. Photometric absorbance was read at 570 nm using a Synergy H1 microplate reader (BioTek). Serum alanine aminotransferase (ALT) levels were measured by VetScan2 (Abaxis Veterinary Diagnostics, Union City, Calif.).
Liver histology was performed using tissue fixed in 10% formalin, dehydrated, and embedded in paraffin. Hematoxylin and eosin (H&E) staining and Sirius red staining were performed. Severity of NASH was assessed using nonalcoholic fatty liver disease (NAFLD) activity score (NAS), a semi-quantitative score that accounts for steatosis, ballooned hepatocytes, and lobular inflammation. Terminal deoxynucleotidyl transferase deoxyuridine triphosphate nick-end labeling (TUNEL) assay was performed using the ApopTag Peroxidase In Situ Apoptosis Detection Kit (Millipore Sigma, St. Louis, Mo.); diaminobenzidine (DAB) was used as a peroxidase substrate (Vector Laboratories, Burlingame, Calif.); 0.5% methyl green was used for the counterstain. […]

Row | SMILES | LPC-induced activation of ITGβ1 (immunofluorescence microscopy) ([1]; 5 μM LPC 20 minutes) | LPC-induced increase in active ITGβ1 (9EG7 immunoprecipitation, immunoblot) ([1]; 20 μM LPC 15-30 min) | PA-induced VCAM-1 protein level (Western blot) [2] | PA-induced VCAM-1 mRNA expression ([2]; real-time qPCR) | MoMF-related hepatic inflammation by Galectin-3 staining of liver sections [3] | NAS score [3] | hepatic mRNA expression of Acta2 (α-SMA) [3] | hepatic mRNA expression of Ccr2 [3] | hepatic mRNA expression of Cd68 [3] | hepatic mRNA expression of Col1α1 [3] | hepatic mRNA expression of Tnfα [3] | hepatic steatosis [3] | liver injury as number of TUNEL positive hepatocyte [3] | liver triglyceride content [3] | plasma ALT levels [3] | stellate cell activation and liver fibrogenesis by Sirius red staining [3] | stellate cell activation and liver fibrogenesis by immunohistochemistry for α-SMA [3]
1 | C[S+]([O-])c1ccc(-c2nc(-c3ccncc3)c(-c3ccc(F)cc3)[nH]2)cc1 (centres unmarked) [SB203580] | diminished | reduced | – | – | – | – | – | – | – | – | – | – | – | – | – | – | –
2 | CC(C)(Sc1cc(C(C)(C)C)c(O)c(C(C)(C)C)c1)Sc1cc(C(C)(C)C)c(OC(=O)CCC(=O)O)c(C(C)(C)C)c1 [AGI-1067, succinobucol] | – | – | inhibits | inhibits | reduced | reduced | attenuated | reduced | reduced | attenuated | reduced | did not alter | reduced | did not alter | did not reach the statistical significance | attenuated | attenuated
